Assay: potentiometric solubility-pH profile titration (pSol)
Type: physicochemical
Details: FIG. 8
Excerpt: The above described titration e.g. of a weak base B from high to low pH-values is used for potentiometric determination of solubility profiles according to the so-called “pSol method” (see e.g. Avdeef, A., 1998, loc. cit.). However, in pSol titrations the phenomenon of a “perfect” buffer system is not encountered frequently because in order to obtain good titration results it is advisable to use only small amounts of the compound under investigation. This leads to a situation where the whole amount of the compound is dissolved before the maximal effective concentration corresponding to point 2 in FIG. 1 is reached. This is illustrated in FIG. 3, where reduction of the pH-value leads along the solubility profile until reaching the point denoted as 2′ in FIG. 3. […] Therefore, the total concentration of the compound remains constant at a value CT.
Measurements of solubility-pH profiles were carried out on a “pSol” apparatus (see e.g. Avdeef, A., 2001, loc. cit.). The potentiometric solubility measurement with the pSol apparatus takes as input parameters the weighted amount of the said compound, the volume of the solution, the measured pKa and the measured (or calculated) octanol/water partition coefficient, logP. […]

COc1ccc2c3c1O[C@H]1[C@@H](O)C=C[C@H]4[C@@H](C2)N(C)CC[C@@]341 [codeine]
pH at which the precipitation begins (total concentration about 58 mg/mL for the titration): about 7 | pH at which the precipitation begins (total concentration of about 13 mg/mL for the titration): about 8

Reference: patent US7381265B2, “Method for crystallization of a weakly acidic and/or weakly basic compound” (Hoffmann-La Roche Inc., priority 2005, dated 2008)
